{
  "source": "patent US10695337B2",
  "about": "“Piperidin-4-yl azetidine derivatives as JAK1 inhibitors” (Incyte Corporation, priority 2010, dated 2020)",
  "data": [
    {"biological_target": "human JAK1 (a.a. 837-1142)", "assay": "In vitro JAK kinase assay (HTRF, phosphorylation of a biotinylated peptide), JAK1", "assay_type": "biochemical", "conditions": "measured at 1 mM ATP; JAK2 IC50 / JAK1 IC50", "method_in_brief": "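N-terminally His-tagged catalytic domains, baculovirus-expressed in insect cells and purified, were used as enzyme. Reactions ran 1 hr at room temperature and were stopped with a mix of 45 mM EDTA, 300 nM SA-APC and 6 nM Eu-Py20. The HTRF signal was read after 40 min of antibody binding.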", "values": [
      {"smiles": "Cc1nc(NC(=O)N2CCC(N3CC(CC#N)(n4cc(-c5ncnc6[nH]ccc56)cn4)C3)CC2)sc1C", "note": "[Example 192, 4-{3-(cyanomethyl)-3-[4-(7H-pyrrolo[2,3-d]pyrimidin-4-yl)-1H-pyrazol-1-yl]azetidin-1-yl}-N-(4,5-dimethyl-1,3-thiazol-2-yl)piperidine-1-carboxamide]", "IC50 Ratio JAK2/JAK1": 3.0},
      {"smiles": "N#CCC1(n2cc(-c3ncnc4[nH]ccc34)cn2)CN(C2CCN(C(=O)Nc3nc4ccccc4s3)CC2)C1", "note": "[Example 193, N-1,3-benzothiazol-2-yl-4-{3-(cyanomethyl)-3-[4-(7H-pyrrolo[2,3-d]pyrimidin-4-yl)-1H-pyrazol-1-yl]azetidin-1-yl}piperidine-1-carboxamide]", "IC50 Ratio JAK2/JAK1": 0.5},
      {"smiles": "Cn1c(NC(=O)N2CCC(N3CC(CC#N)(n4cc(-c5ncnc6[nH]ccc56)cn4)C3)CC2)nc2ccccc21", "note": "[Example 194, 4-{3-(cyanomethyl)-3-[4-(7H-pyrrolo[2,3-d]pyrimidin-4-yl)-1H-pyrazol-1-yl]azetidin-1-yl}-N-(1-methyl-1H-benzimidazol-2-yl)piperidine-1-carboxamide]", "IC50 Ratio JAK2/JAK1": 2.2},
      {"smiles": "N#CCC1(n2cc(-c3ncnc4[nH]ccc34)cn2)CN(C2CCN(C(=O)Nc3nc(-c4ccc(Cl)cc4)cs3)CC2)C1", "note": "[Example 195, N-[4-(4-chlorophenyl)-1,3-thiazol-2-yl]-4-{3-(cyanomethyl)-3-[4-(7H-pyrrolo[2,3-d]pyrimidin-4-yl)-1H-pyrazol-1-yl]azetidin-1-yl}piperidine-1-carboxamide]", "IC50 Ratio JAK2/JAK1": 3.2},
      {"smiles": "CCn1nccc1NC(=O)N1CCC(N2CC(CC#N)(n3cc(-c4ncnc5[nH]ccc45)cn3)C2)CC1", "note": "[Example 196, 4-{3-(cyanomethyl)-3-[4-(7H-pyrrolo[2,3-d]pyrimidin-4-yl)-1H-pyrazol-1-yl]azetidin-1-yl}-N-(1-ethyl-1H-pyrazol-5-yl)piperidine-1-carboxamide]", "IC50 Ratio JAK2/JAK1": 9.9},
      {"smiles": "Cc1cc(NC(=O)N2CCC(N3CC(CC#N)(n4cc(-c5ncnc6[nH]ccc56)cn4)C3)CC2)n(C)n1", "note": "[Example 197, 4-{3-(cyanomethyl)-3-[4-(7H-pyrrolo[2,3-d]pyrimidin-4-yl)-1H-pyrazol-1-yl]azetidin-1-yl}-N-(1,3-dimethyl-1H-pyrazol-5-yl)piperidine-1-carboxamide]", "IC50 Ratio JAK2/JAK1": 3.2},
      {"smiles": "Cc1ncccc1NC(=O)N1CCC(N2CC(CC#N)(n3cc(-c4ncnc5[nH]ccc45)cn3)C2)CC1", "note": "[Example 198, 4-{3-(cyanomethyl)-3-[4-(7H-pyrrolo[2,3-d]pyrimidin-4-yl)-1H-pyrazol-1-yl]azetidin-1-yl}-N-(2-methylpyridin-3-yl)piperidine-1-carboxamide]", "IC50 Ratio JAK2/JAK1": 4.4},
      {"smiles": "Cc1nc(F)ccc1NC(=O)N1CCC(N2CC(CC#N)(n3cc(-c4ncnc5[nH]ccc45)cn3)C2)CC1", "note": "[Example 199, 4-{3-(cyanomethyl)-3-[4-(7H-pyrrolo[2,3-d]pyrimidin-4-yl)-1H-pyrazol-1-yl]azetidin-1-yl}-N-(6-fluoro-2-methylpyridin-3-yl)piperidine-1-carboxamide]", "IC50 Ratio JAK2/JAK1": 10.0},
      {"smiles": "Cc1ccc(NC(=O)N2CCC(N3CC(CC#N)(n4cc(-c5ncnc6[nH]ccc56)cn4)C3)CC2)c(F)n1", "note": "[Example 200, 4-{3-(cyanomethyl)-3-[4-(7H-pyrrolo[2,3-d]pyrimidin-4-yl)-1H-pyrazol-1-yl]azetidin-1-yl}-N-(2-fluoro-6-methylpyridin-3-yl)piperidine-1-carboxamide]", "IC50 Ratio JAK2/JAK1": 6.7},
      {"smiles": "N#CCC1(n2cc(-c3ncnc4[nH]ccc34)cn2)CN(C2CCN(C(=O)Nc3ncccc3C(F)(F)F)CC2)C1", "note": "[Example 201, 4-{3-(cyanomethyl)-3-[4-(7H-pyrrolo[2,3-d]pyrimidin-4-yl)-1H-pyrazol-1-yl]azetidin-1-yl}-N-[3-(trifluoromethyl)pyridin-2-yl]piperidine-1-carboxamide]", "IC50 Ratio JAK2/JAK1": 3.6},
      {"smiles": "N#CCC1(n2cc(-c3ncnc4[nH]ccc34)cn2)CN(C2CCN(C(=O)Nc3ncccc3F)CC2)C1", "note": "[Example 202, 4-{3-(cyanomethyl)-3-[4-(7H-pyrrolo[2,3-d]pyrimidin-4-yl)-1H-pyrazol-1-yl]azetidin-1-yl}-N-(3-fluoropyridin-2-yl)piperidine-1-carboxamide]", "IC50 Ratio JAK2/JAK1": 6.4},
      {"smiles": "N#CCC1(n2cc(-c3ncnc4[nH]ccc34)cn2)CN(C2CCN(C(=O)Nc3ncc(F)cc3F)CC2)C1", "note": "[Example 203, 4-{3-(cyanomethyl)-3-[4-(7H-pyrrolo[2,3-d]pyrimidin-4-yl)-1H-pyrazol-1-yl]azetidin-1-yl}-N-(3,5-difluoropyridin-2-yl)piperidine-1-carboxamide]", "IC50 Ratio JAK2/JAK1": 8.6},
      {"smiles": "COc1ncccc1NC(=O)N1CCC(N2CC(CC#N)(n3cc(-c4ncnc5[nH]ccc45)cn3)C2)CC1", "note": "[Example 204, 4-{3-(cyanomethyl)-3-[4-(7H-pyrrolo[2,3-d]pyrimidin-4-yl)-1H-pyrazol-1-yl]azetidin-1-yl}-N-(2-methoxypyridin-3-yl)piperidine-1-carboxamide]", "IC50 Ratio JAK2/JAK1": 4.0},
      {"smiles": "Cc1nc(C(F)(F)F)ccc1NC(=O)N1CCC(N2CC(CC#N)(n3cc(-c4ncnc5[nH]ccc45)cn3)C2)CC1", "note": "[Example 205, 4-{3-(cyanomethyl)-3-[4-(7H-pyrrolo[2,3-d]pyrimidin-4-yl)-1H-pyrazol-1-yl]azetidin-1-yl}-N-[2-methyl-6-(trifluoromethyl)pyridin-3-yl]piperidine-1-carboxamide]", "IC50 Ratio JAK2/JAK1": 4.4},
      {"smiles": "COC(=O)c1ccccc1NC(=O)N1CCC(N2CC(CC#N)(n3cc(-c4ncnc5[nH]ccc45)cn3)C2)CC1", "note": "[Example 206, methyl 2-{[(4-{3-(cyanomethyl)-3-[4-(7H-pyrrolo[2,3-d]pyrimidin-4-yl)-1H-pyrazol-1-yl]azetidin-1-yl}piperidin-1-yl)carbonyl]amino}benzoate]", "IC50 Ratio JAK2/JAK1": 1.6},
      {"smiles": "COC(=O)c1cc(F)ccc1NC(=O)N1CCC(N2CC(CC#N)(n3cc(-c4ncnc5[nH]ccc45)cn3)C2)CC1", "note": "[Example 207, methyl 2-{[(4-{3-(cyanomethyl)-3-[4-(7H-pyrrolo[2,3-d]pyrimidin-4-yl)-1H-pyrazol-1-yl]azetidin-1-yl}piperidin-1-yl)carbonyl]amino}-5-fluorobenzoate]", "IC50 Ratio JAK2/JAK1": 2.5},
      {"smiles": "COC(=O)c1ccc(NC(=O)N2CCC(N3CC(CC#N)(n4cc(-c5ncnc6[nH]ccc56)cn4)C3)CC2)c(F)c1", "note": "[Example 208, methyl 4-{[(4-{3-(cyanomethyl)-3-[4-(7H-pyrrolo[2,3-d]pyrimidin-4-yl)-1H-pyrazol-1-yl]azetidin-1-yl}piperidin-1-yl)carbonyl]amino}-3-fluorobenzoate]", "IC50 Ratio JAK2/JAK1": 4.8},
      {"smiles": "CN(C)c1ccc(CN2CCC(N3CC(CC#N)(n4cc(-c5ncnc6[nH]ccc56)cn4)C3)CC2)c(F)c1C#N", "note": "[Example 209, 3-[(4-{3-(Cyanomethyl)-3-[4-(7H-pyrrolo[2,3-d]pyrimidin-4-yl)-1H-pyrazol-1-yl]azetidin-1-yl}piperidin-1-yl)methyl]-6-(dimethylamino)-2-fluorobenzonitrile]", "IC50 Ratio JAK2/JAK1": 19.0},
      {"smiles": "N#CCC1(n2cc(-c3ncnc4[nH]ccc34)cn2)CN(C2CCN(Cc3cc(Cl)cc(Cl)c3)CC2)C1", "note": "[Example 210, {1-[1-(3,5-dichlorobenzyl)piperidin-4-yl]-3-[4-(7H-pyrrolo[2,3-d]pyrimidin-4-yl)-1H-pyrazol-1-yl]azetidin-3-yl}acetonitrile]", "IC50 Ratio JAK2/JAK1": 4.3},
      {"smiles": "N#CCC1(n2cc(-c3ncnc4[nH]ccc34)cn2)CN(C2CCN(Cc3cc(C(F)(F)F)ccc3Cl)CC2)C1", "note": "[Example 211, {1-{1-[2-chloro-5-(trifluoromethyl)benzyl]piperidin-4-yl}-3-[4-(7H-pyrrolo[2,3-d]pyrimidin-4-yl)-1H-pyrazol-1-yl]azetidin-3-yl}acetonitrile]", "IC50 Ratio JAK2/JAK1": 5.0},
      {"smiles": "N#CCC1(n2cc(-c3ncnc4[nH]ccc34)cn2)CN(C2CCN(Cc3cccc(C(F)(F)F)c3F)CC2)C1", "note": "[Example 212, {1-{1-[2-fluoro-3-(trifluoromethyl)benzyl]piperidin-4-yl}-3-[4-(7H-pyrrolo[2,3-d]pyrimidin-4-yl)-1H-pyrazol-1-yl]azetidin-3-yl}acetonitrile]", "IC50 Ratio JAK2/JAK1": 7.8},
      {"smiles": "N#CCC1(n2cc(-c3ncnc4[nH]ccc34)cn2)CN(C2CCN(Cc3c(F)cccc3C(F)(F)F)CC2)C1", "note": "[Example 213, {1-{1-[2-fluoro-6-(trifluoromethyl)benzyl]piperidin-4-yl}-3-[4-(7H-pyrrolo[2,3-d]pyrimidin-4-yl)-1H-pyrazol-1-yl]azetidin-3-yl}acetonitrile]", "IC50 Ratio JAK2/JAK1": 9.7},
      {"smiles": "N#CCC1(n2cc(-c3ncnc4[nH]ccc34)cn2)CN(C2CCN(Cc3cc4ccccc4nc3Cl)CC2)C1", "note": "[Example 214, {1-{1-[(2-chloroquinolin-3-yl)methyl]piperidin-4-yl}-3-[4-(7H-pyrrolo[2,3-d]pyrimidin-4-yl)-1H-pyrazol-1-yl]azetidin-3-yl}acetonitrile]", "IC50 Ratio JAK2/JAK1": 2.5},
      {"smiles": "N#CCC1(n2cc(-c3ncnc4[nH]ccc34)cn2)CN(C2CCN(Cc3cc(F)cc(F)c3)CC2)C1", "note": "[Example 215, {1-[1-(3,5-difluorobenzyl)piperidin-4-yl]-3-[4-(7H-pyrrolo[2,3-d]pyrimidin-4-yl)-1H-pyrazol-1-yl]azetidin-3-yl}acetonitrile]", "IC50 Ratio JAK2/JAK1": 5.7},
      {"smiles": "COc1cccc(F)c1CN1CCC(N2CC(CC#N)(n3cc(-c4ncnc5[nH]ccc45)cn3)C2)CC1", "note": "[Example 218, {1-[1-(2-fluoro-6-methoxybenzyl)piperidin-4-yl]-3-[4-(7H-pyrrolo[2,3-d]pyrimidin-4-yl)-1H-pyrazol-1-yl]azetidin-3-yl}acetonitrile]", "IC50 Ratio JAK2/JAK1": 2.6},
      {"smiles": "N#CCC1(n2cc(-c3ncnc4[nH]ccc34)cn2)CN(C2CCN(Cc3cccc(Cl)c3Cl)CC2)C1", "note": "[Example 219, {1-[1-(2,3-dichlorobenzyl)piperidin-4-yl]-3-[4-(7H-pyrrolo[2,3-d]pyrimidin-4-yl)-1H-pyrazol-1-yl]azetidin-3-yl}acetonitrile]", "IC50 Ratio JAK2/JAK1": 2.4}
    ]}
  ]
}
